Read-outs that look alike come from different tables or passages of the source.
What was measured:
ICAM-1 (CD54) = target: T1, ICAM-1 (CD54) (Homo sapiens, UniProt P05362); test: Antibody binding assay (FACS): anti-ICAM-1 mAb (mouse IgG anti-human CD54) binding to Molt3 T-cells after peptide incubation; assay type: cell-based; settings: mAb CD54; peptide 4550 μM; average ± standard error of runs
T1 construct: host or cells: Molt3 human T-cell leukemia line

Molt3 cells [1] = test: Homotypic adhesion assay (MDHC-induced clumping of T-cells); assay type: cell-based, human; parameters: key to Homotypic Adhesion Amount: Any sample having a score of "+++" or "++++" is considered to have a significant ability to modulate T-cell binding interaction; Any sample having a score of "+++" or "++++" is considered to have a significant ability to modulate T-cell binding interaction; settings: 10 μM MDHC
Experimental: As before, the T-cells were Molt3 cells prepared in RPMI 1640 growth medium according to Example 2. An approximate 7 ml aliquot of the growth medium was centrifuged (Jouan Model GT422 at 1400 rpm for 6.5 minutes), and the supernatant fluid was decanted. The pellet was resuspended in the supernatant fluid at titer of about 1×10^6 cells/ml, with the excess supernatant fluid being retained for future resuspension of the peptides.
A 228 nmol quantity of the LJCRF-1 (Sequence ID No. 6) peptide described in Table 1 was diluted with the supernatant fluid to a 500 μl final volume, and filtered in microcentrifuge filter tubes (0.22 micron filter; 3500 rpm for 6 minutes). Serial dilution of the filtered peptide with supernatant fluid was conducted to yield five 125 μl peptide solutions to give respective concentrations of about 115 μM, 230 μM, 460 μM, 910 μM, and 1.82 mM. At each concentration, a 125 μl portion of the cell suspension was pipetted into each 125 μl portion of the peptide solutions to yield combined samples having a 250 μl volume. The 250 μl samples were seeded into individual wells in a 48-well tissue culture grade plate (from Costar of Cambridge, Md.) and incubated at 37° C. for 30 minutes. Each sample received 5 μl of 2,5-methyl dihydroxy cinnamate ("MDHC") for a 10 μM final concentration, and was subsequently incubated for about 10 hours at 37° C. MDHC induces intercellular clumping of human T-cells (Tibbetts, Butler, and Benedict, submitted) by activating the LFA/ICAM binding interaction between respective cells.
Pictures were taken of five random fields per sample using an Olympus photomicroscope having a 0.8 mm field at 400×magnification, and a 3.2 mm field of view at 100×magnification. The amount of clumping observed was quantified by determining the mean number of clumps per field ± a standard error.
FIGS. 5, 6, and 7 replicate photographs taken from exemplary peptide assays. FIG. 5 is a photograph of the control sample having no peptides and no MDHC added, from which essentially no clumping of cells is observed. […] Any sample having a score of "+++" or "++++" is considered to have a significant ability to modulate T-cell binding interaction. This is similar to results obtained by incubating similarly treated cells with antibody against either LFA or ICAM.
The homotypic adhesion assay assesses the actual ability of a candidate peptide to modulate the ability of T-cells to adhere with one another.

Molt3 cells [2] = test: Cell metabolic assay (MTT); assay type: cell-based
Experimental: After taking the photographs in Example 3 (and in some instances no photographs were taken), cell metabolic activity was assessed by an MTT assay. A 37.5 μl portion of MTT dye (purchased from SIGMA of St. Louis, Mo.), i.e., 3-[4,5-dimethyl thiazole-2yl]-2, 5- diphenyl tetrazolium bromide; thiazolyl blue) was added to each well, and incubated with the cells at 37° C. for about six hours. After incubation, a 250 μl quantity of a MTT solubilization solution (of a type that may be purchased from either Fischer Scientific of St. Louis, Mo. or BCD Labs of Lawrence, Kans.) was added to each well, and incubated with the cells at room temperature overnight. In the morning, the spectrophotometric absorption of each plate was determined at 570 nm in a microplate ELISA reader manufactured by Cambridge Technologies of Water-town, Mass., in order to assess cell viability as an indicator of potential peptide toxicity.

LFA-1 (CD11a) = target: T2, LFA-1 (CD11a) (Homo sapiens, UniProt P20701); test: Antibody binding assay (FACS): anti-LFA-1 mAb (mouse IgG anti-human CD11a) binding to Molt3 T-cells after peptide incubation; assay type: cell-based; settings: for Fluorescence, % change from control of the medium fluorescence intensity: mAb CD11a, average ± standard error of runs
T2 construct: host or cells: Molt3 human T-cell leukemia line
Experimental: A 1 ml quantity of the Molt3 inoculum was warmed to 37° C. and transferred by pipette into about 25 ml of a growth culture medium including RPMI 1640 lymphocyte growth medium (Fisher Scientific of St. Louis, Miss.) mixed with 10% by volume fetal calf serum, 100 units/ml penicillin, 100 μg/ml streptomycin and 2 mM glutamine. The inoculated culture was incubated for three to four days at 37° C. under a normal atmosphere having about 5% CO2 added thereto. This culture was capable of being maintained indefinitely by siphoning away the top (non-cell containing) layer and adding 50 ml (or more) of growth culture medium at intervals of three to four days.
An aqueous buffer solution including Dulbecco's phosphate buffered saline and bovine serum albumin ("-PBS/BSA solution") was prepared for use, and included a mixture of 200 mg KH2 PO4, 1.15 g Na2 HPO4, 100 mg CaCl2, 200 mg KCl, 100 mg MgCl2.6H2 O, 8 g NaCl, with distilled water added to a final 1 liter volume at room temperature, thus, forming a "PBS" solution of pH 7.4 to which was added 0.5% by weight bovine serum albumin.
An aliquot of about 7 ml was removed from the incubated culture medium and subjected to washing with the PBS/BSA solution. The washing procedure was initiated by placing the aliquot in a centrifuge (Model GT422 from Jouan, distributed Piruscio & Assoc. of Manchester, Miss.) at 1400 rpm for 6.5 minutes to separate the cells from the growth medium. The supernatant fluid was decanted, a 5 ml portion of PBS/BSA solution was transferred by pipette into the pellet, and the mixture was again centrifuged as before. The resulting supernatant fluid was decanted and the cells from the pellet were resuspended in PBS/BSA solution at a titer of about 1×10^6 cells/ml. A 500 μl portion of the solution containing the resuspended cells was placed in a microcentrifuge (Marathon 13K/M from Fisher Scientific of St. Louis, Miss.) at 3500 rpm for six minutes, to provide a washed pellet.
[…] The cells were incubated with the peptide cocktail at 37° C. for 45 minutes.
After incubation with the peptide cocktail, several antibodies were successively mixed into the incubated solution. A 75 μl portion of anti-IgM solution (a mixture of 10 μl of goat anti-human IgM stock purchased from Jackson Immuno Research of Westgrove, Pa.; and 65 μl of PBS/BSA solution) was added to the peptide cocktail for blocking of nonspecific binding of the secondary antibody. The resulting mixture was incubated for 10 minutes on ice. About 0.1 μg of a primary antibody including mouse IgG anti-human CD11a (purified according to conventional protocols at the University of Kansas Department of Pharmacology and Toxicology from an American Type Culture hybridoma cell line having Catalogue Number HB-202) was next stirred into the mixture, which was then incubated for 30 minutes at room temperature. The incubated mixture was placed in a microcentrifuge at 3500 rpm for six minutes to remove the cells from the mixture, and the cell pellet was washed two times by adding 500 μl aliquots of PBS/BSA solution and microfuging to remove non-bound antibodies from the cells as before. The resulting washed pellet was resuspended in 100 μl of a secondary antibody cocktail including 5 μl of fluorescein isothiocyanate ("FITC") labeled goat anti-mouse IgG (from CALTAG of South San Francisco, Calif.) and 95 μl of PBS/BSA solution. The resulting solution was incubated for 30 minutes at room temperature in the dark.
The incubated solution including the secondary antibody cocktail was microfuged at 3500 rpm for six minutes to remove the cells from the solution, and the cell pellet was washed two times with 500 μl portions of PBS/BSA solution, as before, to remove unbound antibodies. […]

[3] = peptide 4550 μM, negative = blocking

T2 sequence (P20701 26-1170): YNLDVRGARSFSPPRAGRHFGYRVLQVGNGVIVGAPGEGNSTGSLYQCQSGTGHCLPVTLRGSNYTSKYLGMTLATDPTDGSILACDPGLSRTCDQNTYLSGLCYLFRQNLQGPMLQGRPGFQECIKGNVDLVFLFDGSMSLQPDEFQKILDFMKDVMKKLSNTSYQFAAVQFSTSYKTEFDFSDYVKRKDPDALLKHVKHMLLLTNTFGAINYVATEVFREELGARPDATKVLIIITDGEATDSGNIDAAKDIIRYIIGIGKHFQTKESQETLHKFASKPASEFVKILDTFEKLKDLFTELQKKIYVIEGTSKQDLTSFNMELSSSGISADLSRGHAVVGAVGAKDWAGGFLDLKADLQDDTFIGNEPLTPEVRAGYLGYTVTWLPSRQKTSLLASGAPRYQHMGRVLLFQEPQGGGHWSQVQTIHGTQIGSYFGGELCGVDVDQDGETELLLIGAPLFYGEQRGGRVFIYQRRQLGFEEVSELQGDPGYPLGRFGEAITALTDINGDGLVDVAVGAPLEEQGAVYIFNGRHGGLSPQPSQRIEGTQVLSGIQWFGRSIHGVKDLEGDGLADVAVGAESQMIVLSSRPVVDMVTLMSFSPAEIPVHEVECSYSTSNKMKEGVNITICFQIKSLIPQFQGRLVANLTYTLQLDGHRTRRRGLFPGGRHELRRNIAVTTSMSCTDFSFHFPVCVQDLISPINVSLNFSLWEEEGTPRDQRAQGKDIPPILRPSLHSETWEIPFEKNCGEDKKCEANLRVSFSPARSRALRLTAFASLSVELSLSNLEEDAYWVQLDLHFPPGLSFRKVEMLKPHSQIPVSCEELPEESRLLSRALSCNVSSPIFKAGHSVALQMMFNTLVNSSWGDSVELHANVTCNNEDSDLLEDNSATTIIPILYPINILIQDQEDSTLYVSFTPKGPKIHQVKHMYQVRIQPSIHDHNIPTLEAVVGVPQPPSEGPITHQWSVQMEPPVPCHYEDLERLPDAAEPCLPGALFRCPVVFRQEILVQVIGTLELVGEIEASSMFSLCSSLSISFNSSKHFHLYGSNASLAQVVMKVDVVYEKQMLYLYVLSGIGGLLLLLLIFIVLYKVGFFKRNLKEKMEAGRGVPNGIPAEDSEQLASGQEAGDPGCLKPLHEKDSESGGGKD
T2 sequence (P05107 23-769 partner): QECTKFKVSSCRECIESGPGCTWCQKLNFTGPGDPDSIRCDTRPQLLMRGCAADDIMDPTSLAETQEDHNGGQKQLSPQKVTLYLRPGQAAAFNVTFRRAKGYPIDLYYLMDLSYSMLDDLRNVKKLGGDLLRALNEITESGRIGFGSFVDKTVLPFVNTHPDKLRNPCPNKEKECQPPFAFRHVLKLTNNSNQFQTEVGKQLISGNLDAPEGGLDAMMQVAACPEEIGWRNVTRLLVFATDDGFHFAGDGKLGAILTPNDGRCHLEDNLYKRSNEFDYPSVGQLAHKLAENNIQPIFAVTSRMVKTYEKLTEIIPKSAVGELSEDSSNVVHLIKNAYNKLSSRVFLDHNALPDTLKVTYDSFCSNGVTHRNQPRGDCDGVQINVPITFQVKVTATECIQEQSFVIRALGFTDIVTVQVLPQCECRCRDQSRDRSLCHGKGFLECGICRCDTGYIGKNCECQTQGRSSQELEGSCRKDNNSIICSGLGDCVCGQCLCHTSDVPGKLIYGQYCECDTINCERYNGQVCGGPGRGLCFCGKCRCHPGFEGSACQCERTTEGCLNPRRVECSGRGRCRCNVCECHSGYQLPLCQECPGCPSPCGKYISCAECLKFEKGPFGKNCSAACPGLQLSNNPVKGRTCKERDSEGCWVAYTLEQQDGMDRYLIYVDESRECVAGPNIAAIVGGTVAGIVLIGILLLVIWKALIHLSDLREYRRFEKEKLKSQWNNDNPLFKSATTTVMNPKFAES
T1 sequence (P05362 28-532): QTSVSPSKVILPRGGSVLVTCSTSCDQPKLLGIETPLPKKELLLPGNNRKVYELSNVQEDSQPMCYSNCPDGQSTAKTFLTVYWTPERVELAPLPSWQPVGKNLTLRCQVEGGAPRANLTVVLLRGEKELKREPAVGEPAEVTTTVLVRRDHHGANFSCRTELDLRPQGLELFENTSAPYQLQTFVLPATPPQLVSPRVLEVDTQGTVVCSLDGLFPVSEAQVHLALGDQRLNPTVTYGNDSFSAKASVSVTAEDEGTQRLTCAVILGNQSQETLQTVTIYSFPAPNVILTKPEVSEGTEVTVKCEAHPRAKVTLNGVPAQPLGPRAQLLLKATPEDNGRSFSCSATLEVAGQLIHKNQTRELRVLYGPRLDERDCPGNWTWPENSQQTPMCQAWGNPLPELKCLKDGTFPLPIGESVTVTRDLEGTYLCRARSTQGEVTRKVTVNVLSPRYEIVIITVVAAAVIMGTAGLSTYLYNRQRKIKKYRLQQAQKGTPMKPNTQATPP

Row | Substance | Fluorescence, % change from control of the medium fluorescence intensity (ICAM-1 (CD54)) [%] | Homotypic Adhesion Effect (Molt3 cells [1]; peptide 115 μM) | Homotypic Adhesion Effect (Molt3 cells [1]; peptide 230 μM) | Homotypic Adhesion Effect (Molt3 cells [1]; peptide 460 μM) | Homotypic Adhesion Amount (Molt3 cells [1]; peptide 910 μM) | Homotypic Adhesion Effect (Molt3 cells [1]; peptide 910 μM) | Homotypic Adhesion Amount (Molt3 cells [1]; peptide 1820 μM) | Homotypic Adhesion Effect (Molt3 cells [1]; peptide 1820 μM) | MTT % Viability (Molt3 cells [2]; peptide 115 μM) [%] | MTT % Viability (Molt3 cells [2]; peptide 230 μM) [%] | MTT % Viability (Molt3 cells [2]; peptide 460 μM) [%] | MTT % Viability (Molt3 cells [2]; peptide 910 μM) [%] | MTT % Viability (Molt3 cells [2]; peptide 1820 μM) [%] | Fluorescence, % change from control of the medium fluorescence intensity (LFA-1 (CD11a); [3]) [%] | Homotypic Adhesion Amount (Molt3 cells [1]; peptide 460 μM) | also measured
1 | LJCRF-5: LFA-1α derived short-chain peptide, Sequence ID No. 17 (GVDVDQDGETELIGAPLFYGEQRG) | -17 | Block | Block | Block | ++++ | Block | ++++ | Block | 95 | 84 | 81 | 52 | 20 | – | – | metabolic activity by MTT (Molt3 cells [2]; peptide 1820 μM): decrease in metabolic activity
2 | LJCRF-1: ICAM-1 based short-chain peptide, Sequence ID No. 6 (QTSVSPSKVILPRGGSVLVTG) | – | – | – | Block | – | Block | +++ | Block | – | – | 93 | 92 | 66 | -29 ± 3 | +++ | Fluorescence, % change from control of the medium fluorescence intensity (LFA-1 (CD11a); peptide 2275 μM): -12 ± 2%; blocking efficiency (LFA-1 (CD11a); single above-average run (FIGS. 2, 3), peptide 4550 μM, anti-CD11a): 65%
3 | LJCRF-3: ICAM-1 derived short-chain peptide, Sequence ID No. 12 (KELLLPGNNRKVYELSNVQEDSQP) | – | – | – | – | – | – | – | – | – | – | – | – | – | -13 ± 19 | – | MTT % Viability (Molt3 cells [2]): 38%
4 | LJCRF-6: LFA-1α (insert) based short-chain peptide, Sequence ID No. 18 (ITDGEATDSGNIDAAKDIIYIIGI) | -4 | – | – | – | – | almost total inhibition | +++ | Block | – | – | – | – | – | – | – | –
5 | MC-1-80: ICAM-1 derived short-chain peptide, Sequence ID No. 9 (LPRGGSVLVTG) | – | – | – | – | – | – | – | – | – | – | – | – | – | – | – | metabolic activity / cellular respiration by MTT (Molt3 cells [2]; peptide 910 μM): enhanced
6 | SC-3-223: LFA-1β derived peptide, identical to LJCRF-4 (Sequence ID No. 16), tested separately (DLSYSLDDLRNVKKLGGDLLRALNE) | – | Block | Block | Block | ++++ | Block | ++++ | Block | 103 | 109 | 112 | 108 | 75 | – | +++ | Homotypic Adhesion Amount (Molt3 cells [1]; peptide 230 μM): +++
